# Results reported in patent publication US20050222127A1, “Use of Rho kinase inhibitors in the treatment of hearing loss, tinnitus and improving body balance” (Alcon, Inc., priority 2004, published 2005).
# Assays:
# [1] = target: T1, Human recombinant Rho kinase (ROKα/ROCK-II, aa 11-552) (Homo sapiens, UniProt O75116); test: [γ-33P]-ATP-based Rho kinase assay; format: biochemical; details: mean ± SEM; 100 μM ATP, Long S6 substrate peptide 30 μM, 30 min at 30° C.; read-out: Rho Kinase Inhibition Constants (IC50), [γ-33P]-ATP-Based Assay
# T1 construct: ROKα/ROCK-II, (aa 11-552), human active, catalog #14-451; purchased Upstate Biotechnology Co., Lake Placid, N.Y. 14-451
# Method: (§1) Rho kinase activity and inhibition of activity by test compounds in vitro is carried out using a radioactive assay or a fluorescence polarization assay as described herein.
# The enzyme assays are performed using a Biomek 2000 Robotic Workstation (Beckman Instruments, Palo Alto, Calif.) in a 96-well format using [γ-^33P]-ATP (Perkin-Elmer Life Sciences, Boston, Mass.). Stock [γ-^33P] ATP (3000 Ci/mmol) is diluted to 1 μCi/μl with the MgCl2/ATP cocktail solution. The concentrations of MgCl2/ATP used are 15 mM and 100 μM, respectively. […] The substrate and enzyme are diluted in 20 mM MOPS buffer (pH 7.2), 25 mM β-glycerol phosphate, 5 mM EGTA, 1.0 mM sodium orthovanadate, and 1.0 mM DTT. Test compound dilutions are made in 10:10 dimethyl sulfoxide-ethanol (vol/vol). In the following order, substrate, enzyme, test compound dilution, and [γ-33P]-ATP are added to the 96-well plates for a final volume of 100 μl per well. […] The radioactivity captured on the filter mats is then determined on a beta-counter.
# Rho kinase (ROCK II) = target: T2, Rho kinase (ROCK II) (Homo sapiens, UniProt O75116); test: IMAP fluorescence polarization Rho kinase assay (IMAP ROCK II kit); format: biochemical; details: mean ± SEM; 10 μM ATP, substrate 200 nM, 60 min at 23° C.; read-out: Rho Kinase Inhibition Constants (IC50), IMAP Fluorescence Polarization-Based Assay
# T2 construct: purchased Molecular Devices, Sunnyvale, Calif
# Method: as §1
# The fluorescence polarization assays are performed using a Biomek 2000 Robotic Workstation (Beckman Instruments, Palo Alto, Calif.) in a 96-well plate format. The assay is performed utilizing the IMAP ROCK II kit (Molecular Devices, Sunnyvale, Calif.) as follows. […] The substrate, enzyme, and ATP dilutions are made with the reaction buffer provided by the vendor. Test compounds are diluted in 10:10 DMSO-ethanol (vol/vol). For the actual assay, the various components are added into black, clear bottom, 96-well plates (Costar, Corning, N.Y.) in a final volume of 20 μl per well. After the enzyme reaction (60 min at 23° C.), 60 μl of the binding solution (IMAP kit provided by vendor) is added per well and incubated for an additional 30 minutes in the dark at 23° C. Fluorescence polarization of the reaction mixtures is then measured on the Analyst™ HT instrument (Molecular Devices, Sunnyvale, Calif.). The data are then analyzed using a non-linear, iterative, sigmoidal-fit computer program purchased from IDBS (Emeryville, Calif.) and as previously described (Sharif et al., ibid.) to generate the inhibition constants for the test compounds.
# T2 sequence (O75116 whole entry, species assumed): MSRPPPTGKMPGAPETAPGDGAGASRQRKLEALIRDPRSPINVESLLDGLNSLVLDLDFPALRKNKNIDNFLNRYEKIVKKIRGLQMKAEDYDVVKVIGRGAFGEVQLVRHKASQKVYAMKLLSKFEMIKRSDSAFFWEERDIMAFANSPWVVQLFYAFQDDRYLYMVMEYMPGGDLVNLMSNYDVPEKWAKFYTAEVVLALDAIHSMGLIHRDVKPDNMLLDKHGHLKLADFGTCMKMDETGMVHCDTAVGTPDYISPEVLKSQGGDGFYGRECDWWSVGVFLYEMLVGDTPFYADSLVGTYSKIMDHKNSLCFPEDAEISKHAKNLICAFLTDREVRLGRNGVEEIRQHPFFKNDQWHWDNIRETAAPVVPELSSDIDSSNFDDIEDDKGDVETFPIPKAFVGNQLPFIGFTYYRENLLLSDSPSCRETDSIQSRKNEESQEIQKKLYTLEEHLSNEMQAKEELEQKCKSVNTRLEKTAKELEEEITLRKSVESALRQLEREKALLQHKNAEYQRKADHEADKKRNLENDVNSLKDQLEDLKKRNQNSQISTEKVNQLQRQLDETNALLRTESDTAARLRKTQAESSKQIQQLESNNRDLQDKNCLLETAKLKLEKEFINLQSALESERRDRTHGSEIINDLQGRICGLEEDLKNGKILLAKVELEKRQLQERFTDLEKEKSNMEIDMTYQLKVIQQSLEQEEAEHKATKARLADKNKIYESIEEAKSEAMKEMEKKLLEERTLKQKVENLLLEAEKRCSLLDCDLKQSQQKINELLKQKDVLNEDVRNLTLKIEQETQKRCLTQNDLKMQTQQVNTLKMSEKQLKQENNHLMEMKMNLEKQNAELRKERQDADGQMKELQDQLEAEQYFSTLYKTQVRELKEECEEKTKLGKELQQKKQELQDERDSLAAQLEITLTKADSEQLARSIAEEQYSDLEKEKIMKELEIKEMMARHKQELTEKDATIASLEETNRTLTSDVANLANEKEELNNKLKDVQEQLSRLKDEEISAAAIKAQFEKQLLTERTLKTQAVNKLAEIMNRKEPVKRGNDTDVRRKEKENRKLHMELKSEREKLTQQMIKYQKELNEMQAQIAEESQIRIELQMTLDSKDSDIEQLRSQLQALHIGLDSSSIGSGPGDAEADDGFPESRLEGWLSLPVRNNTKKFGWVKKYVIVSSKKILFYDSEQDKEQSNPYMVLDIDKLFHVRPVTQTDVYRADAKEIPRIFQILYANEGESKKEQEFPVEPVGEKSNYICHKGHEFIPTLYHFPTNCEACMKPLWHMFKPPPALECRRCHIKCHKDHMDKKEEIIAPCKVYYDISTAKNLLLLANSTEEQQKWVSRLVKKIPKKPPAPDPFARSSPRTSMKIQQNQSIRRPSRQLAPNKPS
# T1 sequence (O75116 11-552): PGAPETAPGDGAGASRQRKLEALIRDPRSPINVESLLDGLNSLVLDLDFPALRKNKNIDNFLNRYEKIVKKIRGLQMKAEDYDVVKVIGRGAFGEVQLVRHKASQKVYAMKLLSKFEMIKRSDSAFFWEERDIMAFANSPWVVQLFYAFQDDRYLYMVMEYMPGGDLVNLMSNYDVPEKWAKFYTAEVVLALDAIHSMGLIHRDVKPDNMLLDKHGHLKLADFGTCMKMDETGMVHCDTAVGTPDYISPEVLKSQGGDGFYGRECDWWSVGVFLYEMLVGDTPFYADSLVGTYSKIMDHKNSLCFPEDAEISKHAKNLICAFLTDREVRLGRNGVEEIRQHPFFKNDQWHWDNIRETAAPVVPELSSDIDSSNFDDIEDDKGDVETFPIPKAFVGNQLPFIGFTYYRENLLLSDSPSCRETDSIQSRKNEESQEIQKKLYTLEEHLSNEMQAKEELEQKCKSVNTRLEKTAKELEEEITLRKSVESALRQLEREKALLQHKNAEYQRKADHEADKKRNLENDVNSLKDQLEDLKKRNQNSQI
Compound,IC50 [1],IC50 (Rho kinase (ROCK II))
"CC1CNCCN1S(=O)(=O)c1cccc2cnccc12 (centres unmarked) [B, reference compound]",2340 ± 395 nM,913 ± 644 nM
Cc1cncc2cccc(S(=O)(=O)N3CCCN(C)C(C)C3)c12 (centres unmarked) [D],3460 ± 1800 nM,270 ± 113 nM

# Second part, the compound after the results:
IC50 [1],IC50 (Rho kinase (ROCK II)),Compound
2630 ± 307 nM,2390 ± 1260 nM,Cc1cncc2cccc(S(=O)(=O)N3CCNC(C)C3)c12 (centres unmarked) [G]
485 ± 207 nM,108 ± 53 nM,Cc1cncc2cccc(S(=O)(=O)N3CCCN(C)CC3C)c12 (centres unmarked) [E]
6700 ± 900 nM,,"CC1CN(S(=O)(=O)c2cccc3cnccc23)CCN1 (centres unmarked) [I, reference compound]"
1510 ± 704 nM,2010 ± 85 nM,Cc1cncc2cccc(S(=O)(=O)N3CCCNC(C)(C)C3)c12 [F]
